Experimental data from paper PMC1334386 (PLoS Biology, 2006).

Columns and labels:
[1] = tested on: HAUSP TRAF-like domain (residues 1–206); test: gel filtration binding assay with HAUSP (residues 1–206); details: Superdex-200, 25 mM Tris pH 8.0, 100 mM NaCl, 2 mM DTT, 4 °C, SDS-PAGE/Coomassie, protein alone, no competitor
Method: (§1) Size-exclusion chromatography (gel filtration), using a Superdex-200 column (10/30, Amersham Pharmacia Biotech, Piscataway, New Jersey, United States), was employed to carry out all the in vitro binding assays. Proteins subjected to binding tests were incubated at 4 °C for at least 45 min to allow equilibrium to be reached. The flow rate was 0.5 ml/min, and the buffer contained 25 mM Tris (pH 8.0), 100 mM NaCl, and 2 mM DTT. All fractions were collected at 0.5 ml each. Aliquots of relevant fractions were mixed with SDS sample buffer and subjected to SDS-polyacrylamide gel electrophoresis. The proteins were visualized by Coomassie Blue staining. The column was calibrated with molecular-mass standards.

[2] = tested on: full-length HAUSP; test: gel filtration binding assay of MDM2 with full-length HAUSP; details: Superdex-200, 25 mM Tris pH 8.0, 100 mM NaCl, 2 mM DTT, 4 °C
Method: as §1

[3] = target: T1, HAUSP TRAF-like domain (residues 53–206) (Homo sapiens, UniProt Q93009); test: gel filtration binding assay of MDM2 fragments with HAUSP TRAF-like domain; details: Superdex-200, HAUSP residues 53–206, 25 mM Tris pH 8.0, 100 mM NaCl, 2 mM DTT, 4 °C
T1 construct: GST (N); made in house; host or cells: Escherichia coli BL21(DE3), vector pGEX-2T
Method: as §1

T1 sequence (Q93009 53-206): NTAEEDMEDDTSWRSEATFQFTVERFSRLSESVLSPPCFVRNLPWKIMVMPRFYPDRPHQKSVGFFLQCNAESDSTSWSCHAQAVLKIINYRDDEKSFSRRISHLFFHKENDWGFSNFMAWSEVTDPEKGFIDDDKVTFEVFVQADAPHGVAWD

Substance	complex formation with HAUSP (residues 1–206) [1]	complex formation with full-length HAUSP [2]	complex formation with HAUSP TRAF-like domain [3]
MDM2 (residues 170–423): MDM2 fragment, residues 170–423	form a stable complex	–	–
MDM2 (residues 170–432): 33-kDa fragment of MDM2 (residues 170–432)	–	formed a stable complex	formed a stable complex
